Experimental data from patent EP1114060B1, “PROCESS FOR PRODUCING PEPTIDES FROM BIOLOGICAL FLUIDS AND PEPTIDES […] SAID PROCESS” (NIZO food research, priority 1998, dated 2003).
Bridges are numbered along the chain shown (N, C = ends). Where no end group is shown, it is not given here. [ ]: non-standard residue; d: D form. Dhb = C/C=C(\N)C(=O)O; Dha = C=C(N)C(=O)O

System: Micrococcus flavus DSM 1790
Test: plate diffusion assay for antibacterial activity
Format: cell-based
Details: fraction desorbed with 1 M KCI in phosphate buffer, pH 7.0
Description: Antibacterial activities of the peptide mixtures and/or isolated peptides were determined by a plate diffusion assay using Micrococcus flavus DSM 1790 as indicator organism. M. flavus was grown in MF broth (0.1% sucrose, 1% peptone, 0.3% meat extract, 0.2% NaCI, 0.15% yeast extract pH 7.0). Peptide mixtures were tested at concentrations from 0.2 mg/ml to 50 mg/ml in bidistilled water.

nisin A (I[Dhb]SI[Dha]LCTPGCKTGALMGCNMKTATCHCSIHV[Dha]K; bridge 23-26, 13-19, 8-11, 25-28, 3-7; not fully specified (bridges); UniProt P13068 24-57, looked up) [lantibiotic]
activity against Micrococcus flavus: showed activity
